Like-named read-outs stand apart in the source and are kept apart here.
Legend:
[1] = test system: D1-like dopamine receptors in l-LNv; experiment: EPAC-FRET cAMP imaging of l-LNv response to dopamine; format: cell-based, Drosophila
[2] = test system: dopamine receptor(s) (DA-R) in s-LNv; conditions: for Max Ampl DA ZT4 / Max Ampl DA ZT22 / EC50: Pdf > Epac50A
[3] = test system: Drosophila D1-like receptors expressed in hEK-293 cells; conditions: hEK-293 cells expressing Drosophila D1-like receptor
[4] = test system: dopamine receptor(s) (DA-R) in s-LNv; conditions: 2012, cited from earlier work
[5] = test system: D1-like dopamine receptors in l-LNv; conditions: via one or more D1-like dopamine receptors, ref Shang et al. 2011, Duvall and Taghert, 2012; cited from earlier work

DA responsiveness after RNAi targeting of AC13E and of ACX-A ([2]; s-LNv, Suppl. Figure 2-top): partially reduced DA responsiveness | attenuation of FRET response after peak ([2]; sustained exposure to DA): rapidly attenuated | time to peak of FRET response ([2]; sustained exposure to DA, relation: within): 1 to 2 min
SMILES: NCCc1ccc(O)c(O)c1 [DA, dopamine]
FRET responses to DA over the 24-hr period ([1]; 3 × 10^−05 M DA, N=33 brains, 178 ROIs, P=0.574): did not significantly vary over the 24-hr time period tested | Max Ampl DA ZT4 ([1]; Pdf > Epac50A, LD 12:12, ZT4): 15.3 ± 1.3 | Max Ampl DA ZT22 ([1]; Pdf > Epac50A, LD 12:12, ZT22): 16.0 ± 1.3 | rhythm of responsiveness to DA ([2]; 3 × 10^−05 M DA, s-LNv, N=36 brains, 124 ROIs): peak phase in synchrony with the peak phase of PDF responsiveness, just after lights-on | Max Ampl DA ZT4 ([2]; s-LNv, LD 12:12, ZT4): 15.3 ± 1.2 | Max Ampl DA ZT22 ([2]; s-LNv, LD 12:12, ZT22): 14.7 ± 2.8 | Max Ampl DA ZT4 ([2]; rala[CA], s-LNv, LD 12:12, ZT4): 14.0 ± 1.4 | Max Ampl DA ZT22 ([2]; rala[CA], s-LNv, LD 12:12, ZT22): 13.6 ± 2.0 | Max Ampl DA ZT4 ([2]; rala[DN], s-LNv, LD 12:12, ZT4): 13.6 ± 1.5 | Max Ampl DA ZT22 ([2]; rala[DN], s-LNv, LD 12:12, ZT22): 14.4 ± 1.9 | EC50 ([2]; read-out: DA EC50 ZT4, rala[CA], s-LNv, LD 12:12, ZT4): 5.7 µM | EC50 ([2]; read-out: DA EC50 ZT4, rala[DN], s-LNv, LD 12:12, ZT4): 29 µM | EC50 ([2]; read-out: DA EC50 ZT22, rala[CA], s-LNv, LD 12:12, ZT22): 6.4 µM | β-ARR2-GFP translocation [3]: potently recruited β-ARR2-GFP translocation | DA responsiveness on over-expression of AC3 ([4]; s-LNv, ref Duvall and Taghert): no effect on DA responsiveness | cAMP increase in vivo ([4]; small LNv, ref Shang et al. 2011, Duvall and Taghert): generates cAMP increases in vivo | cAMP increase in vivo [5]: generates cAMP increases in vivo
